In brackets after ≈: the same amount, converted by molar mass.
The molecules below were run on HT-29 cell line (assay: SRB assay, antiproliferative activity against HT-29). Details: 2 h incubation, SRB assay, HT-29.
Assay type: cell-based, human
Experimental: (§1) The human adenocarcinoma cell line, HT-29 (ATCC HTB-38), was cultured in αMEM medium (IITD PAN) supplemented with 10% fetal bovine serum, FBS (Sigma-Aldrich, Taufkirchen, Germany), 100 U/mL penicillin, 100 µg/mL streptomycin antibiotic solution (Sigma-Aldrich, Taufkirchen, Germany), and 2 mM glutamine solution (Sigma-Aldrich, Taufkirchen, Germany). Cells from less than 20 passages were used for the study. In turn, preadipocytes from mouse embryos with the morphology of fibroblast cells, line 3T3-L1 (ATCC CL-173), were cultured in DMEM high-glucose medium (Life Technologies Corporation, Carlsbad, CA, USA) with the same supplements as above. Cells from less than 14 passages were used for the study. Both tested cell lines were grown at 37 °C in 5% CO2.
(§2) The effect of O-alkyl derivatives of naringenin and their oximes on eukaryotic cells was checked using a slightly modified SRB test described earlier. Firstly, HT-29 (1 × 10^5 cells/mL) and 3T3-L1 (5 × 10^4 cells/mL) cell lines were incubated in adherent microtiter plates under the conditions described above. The cells were then treated for 2 h with the tested compounds 1a–10a and 1b–10b at concentrations of 1, 5, 10, 25, 50, 75, and 100 µg/mL each. After this time, the medium was removed and replaced with one containing 50% (wt/vol) trichloroacetic acid (TCA; Sigma-Aldrich, Taufkirchen, Germany). Following 1 h of incubation at 4 °C, the plate was rinsed with water, and then an acidic solution of 0.4% sulforhodamine B (SRB) (Sigma-Aldrich, Taufkirchen, Germany), was added to the dried wells and incubated in the dark for half an hour. At the end of this time, the SRB solution was replaced by 1% (vol/vol) acetic acid, and the stained protein precipitate was dissolved in 10 mM Tris base solution (pH 10.5). Absorbance was measured at 560 nm in a plate reader (GloMax Discover Microplate Reader, Promega).
(§3) The cytotoxic effect of O-alkyl derivatives of naringenin and their oximes on eukaryotic cells was expressed as the concentration of the tested compounds at which 50% growth inhibition of the tested cell lines was observed. Values were presented in the form of the survival index (SI)–IC50. All determinations were repeated in three independent experiments, each performed in three technical replicates. Moreover, the effect of DMSO (Sigma-Aldrich, Taufkirchen, Germany), the solvent present in all the initial solutions of the tested compounds, on the growth of the cell lines used in the study was also verified.

SMILES	IC50 HT-29
ON=C1C[C@@H](c2ccc(O)cc2)Oc2cc(O)cc(O)c21 [NGOX, naringenin oxime, reference compound]	>100 µg/mL

Same assay, conditions: HT-29, 1a vs 7a

SMILES	IC50 lower than compound 7a (ratio)
CCCCCCOc1cc(O)c2c(c1)O[C@H](c1ccc(O)cc1)CC2=O [Compound 1a, 7-O-hexylnaringenin]	1.8 times

Same assay, conditions: Homo sapiens; 2 h incubation, SRB assay, HT-29

SMILES	IC50
CCCCCCCCCCCOc1ccc([C@@H]2CC(=NO)c3c(O)cc(OCCCCCCCCCCC)cc3O2)cc1 [Compound 10b, 7,4’-di-O-undecylnaringenin oxime]	48.2 µg/mL (≈ 80.9 µM)
CCCCCCCCOc1ccc([C@@H]2CC(=O)c3c(O)cc(OCCCCCCCC)cc3O2)cc1 [Compound 6a, 7,4’-di-O-octylnaringenin]	> 100 µg/mL
CCCCCCCCCOc1cc(O)c2c(c1)O[C@H](c1ccc(O)cc1)CC2=O [Compound 7a, 7-O-nonylnaringenin]	46.7 µg/mL (≈ 117 µM)
CCCCCCCCOc1ccc([C@@H]2CC(=NO)c3c(O)cc(OCCCCCCCC)cc3O2)cc1 [Compound 6b, 7,4’-di-O-octylnaringenin oxime]	> 100 µg/mL
CCCCCCCOc1ccc([C@@H]2CC(=O)c3c(O)cc(OCCCCCCC)cc3O2)cc1 [Compound 4a, 7,4’-di-O-heptylnaringenin]	> 100 µg/mL
CCCCCCCCCOc1ccc([C@@H]2CC(=O)c3c(O)cc(OCCCCCCCCC)cc3O2)cc1 [Compound 8a, 7,4’-di-O-nonylnaringenin]	> 100 µg/mL
CCCCCCCCOc1cc(O)c2c(c1)O[C@H](c1ccc(O)cc1)CC2=NO [Compound 5b, 7-O-octylnaringenin oxime]	49.8 µg/mL (≈ 125 µM)
CCCCCCOc1cc(O)c2c(c1)O[C@H](c1ccc(O)cc1)CC2=NO [Compound 1b, 7-O-hexylnaringenin oxime]	38.4 µg/mL (≈ 103 µM)
CCCCCCOc1cc(O)c2c(c1)O[C@H](c1ccc(O)cc1)CC2=O [Compound 1a, 7-O-hexylnaringenin]	25.4 µg/mL (≈ 71.2 µM)

Same assay, conditions: SRB, tested concentration range 1–100 µg/mL

SMILES	cytotoxic / antiproliferative effect against HT-29 (in words)
CCCCCCCCOc1ccc([C@@H]2CC(=O)c3c(O)cc(OCCCCCCCC)cc3O2)cc1 [Compound 6a, 7,4’-di-O-octylnaringenin]	no effect
CCCCCCCCCOc1cc(O)c2c(c1)O[C@H](c1ccc(O)cc1)CC2=O [Compound 7a, 7-O-nonylnaringenin]	antiproliferative activity
CCCCCCCOc1ccc([C@@H]2CC(=O)c3c(O)cc(OCCCCCCC)cc3O2)cc1 [Compound 4a, 7,4’-di-O-heptylnaringenin]	no effect
CCCCCCCCCOc1ccc([C@@H]2CC(=O)c3c(O)cc(OCCCCCCCCC)cc3O2)cc1 [Compound 8a, 7,4’-di-O-nonylnaringenin]	no effect
CCCCCCCCOc1cc(O)c2c(c1)O[C@H](c1ccc(O)cc1)CC2=NO [Compound 5b, 7-O-octylnaringenin oxime]	cytotoxic effects
CCCCCCOc1cc(O)c2c(c1)O[C@H](c1ccc(O)cc1)CC2=NO [Compound 1b, 7-O-hexylnaringenin oxime]	cytotoxic effects
CCCCCCOc1cc(O)c2c(c1)O[C@H](c1ccc(O)cc1)CC2=O [Compound 1a, 7-O-hexylnaringenin]	antiproliferative activity

These molecules were tested on 3T3-L1 cell line (assay: SRB assay, antiproliferative activity against 3T3-L1). Details: 2 h incubation, SRB assay, 3T3-L1.
Assay type: cell-based, mouse
Experimental: as §1, §2, §3

SMILES	IC50 3T3-L1
ON=C1C[C@@H](c2ccc(O)cc2)Oc2cc(O)cc(O)c21 [NGOX, naringenin oxime, reference compound]	>100 µg/mL

Same assay, conditions: Mus musculus; 2 h incubation, SRB assay, 3T3-L1

SMILES	IC50
CCCCCCCCCCCOc1ccc([C@@H]2CC(=NO)c3c(O)cc(OCCCCCCCCCCC)cc3O2)cc1 [Compound 10b, 7,4’-di-O-undecylnaringenin oxime]	> 100 µg/mL
CCCCCCCCOc1ccc([C@@H]2CC(=O)c3c(O)cc(OCCCCCCCC)cc3O2)cc1 [Compound 6a, 7,4’-di-O-octylnaringenin]	> 100 µg/mL
CCCCCCCCCOc1cc(O)c2c(c1)O[C@H](c1ccc(O)cc1)CC2=O [Compound 7a, 7-O-nonylnaringenin]	22.2 µg/mL (≈ 55.8 µM)
CCCCCCCCOc1ccc([C@@H]2CC(=NO)c3c(O)cc(OCCCCCCCC)cc3O2)cc1 [Compound 6b, 7,4’-di-O-octylnaringenin oxime]	> 100 µg/mL
CCCCCCCOc1ccc([C@@H]2CC(=O)c3c(O)cc(OCCCCCCC)cc3O2)cc1 [Compound 4a, 7,4’-di-O-heptylnaringenin]	> 100 µg/mL
CCCCCCCCCOc1ccc([C@@H]2CC(=O)c3c(O)cc(OCCCCCCCCC)cc3O2)cc1 [Compound 8a, 7,4’-di-O-nonylnaringenin]	> 100 µg/mL
CCCCCCCCOc1cc(O)c2c(c1)O[C@H](c1ccc(O)cc1)CC2=NO [Compound 5b, 7-O-octylnaringenin oxime]	49.9 µg/mL (≈ 125 µM)
CCCCCCOc1cc(O)c2c(c1)O[C@H](c1ccc(O)cc1)CC2=NO [Compound 1b, 7-O-hexylnaringenin oxime]	35 µg/mL (≈ 94.2 µM)
CCCCCCOc1cc(O)c2c(c1)O[C@H](c1ccc(O)cc1)CC2=O [Compound 1a, 7-O-hexylnaringenin]	25.8 µg/mL (≈ 72.4 µM)

Same assay, conditions: SRB, tested concentration range 1–100 µg/mL

SMILES	cytotoxic / antiproliferative effect against 3T3-L1 (in words)
CCCCCCCCOc1ccc([C@@H]2CC(=O)c3c(O)cc(OCCCCCCCC)cc3O2)cc1 [Compound 6a, 7,4’-di-O-octylnaringenin]	no effect
CCCCCCCCCOc1cc(O)c2c(c1)O[C@H](c1ccc(O)cc1)CC2=O [Compound 7a, 7-O-nonylnaringenin]	cytotoxic activity
CCCCCCCOc1ccc([C@@H]2CC(=O)c3c(O)cc(OCCCCCCC)cc3O2)cc1 [Compound 4a, 7,4’-di-O-heptylnaringenin]	no effect
CCCCCCCCCOc1ccc([C@@H]2CC(=O)c3c(O)cc(OCCCCCCCCC)cc3O2)cc1 [Compound 8a, 7,4’-di-O-nonylnaringenin]	no effect
CCCCCCOc1cc(O)c2c(c1)O[C@H](c1ccc(O)cc1)CC2=O [Compound 1a, 7-O-hexylnaringenin]	cytotoxic activity

The molecules below were run on Escherichia coli K12 (ATCC 10798) (assay: Adhesion assay, static conditions: E. coli to 3T3-L1 cell line). Details: 1 µg/mL.
Assay type: cell-based
Experimental: (§4) The study used two reference strains, Escherichia coli K12 (ATCC 10798) and Enterococcus faecalis (ATCC 29212), obtained from the American Type Culture Collection. Both strains were stored in trypticase soy broth (TSB; OXOID, Basingstoke, UK) with the addition of 30% glycerol at −70 °C in the museum resources of the Department of Microbiology at the Wroclaw Medical University.
(§5) For studies determining the interaction of bacteria with eukaryotic cells, suspensions of the tested strains were prepared in Luria broth (LB, Becton, Dickinson and Company, USA) medium with a bacterial density of 6 × 10^8 CFU/mL.
(§6) The adhesion ability of the tested bacterial strains to HT-29 and 3T3-L1 cell lines was determined by an in vitro adhesion assay as described previously. Eukaryotic cells were infected with prokaryotic cells in the presence of the examined compounds in pre-selected concentrations at an MOI (multiplicity of infection) ratio of 50. Cells were exposed to the tested strains and compounds for 2 h. After this time, unbound bacteria were removed by washing with PBS (Life Technologies Corporation, Carlsbad, CA, USA). The lysates acquired by cell lysis (0.5% Triton X-100 in LB): 90 min, 37 °C, 5% CO2 atmosphere, were then seeded onto TSA and MC media for E. faecalis and E. coli, respectively. The assays were performed in at least three independent experiments (cells from subsequent passages), each in triplicate. A control without tested compounds was set for each strain.

SMILES	attachment of E. coli to 3T3-L1 decreased to
CCCCCCOc1cc(O)c2c(c1)O[C@H](c1ccc(O)cc1)CC2=NO [Compound 1b, 7-O-hexylnaringenin oxime]	63%

Same assay, conditions: 25 µg/mL

SMILES	adherence of E. coli to 3T3-L1
CCCCCCOc1cc(O)c2c(c1)O[C@H](c1ccc(O)cc1)CC2=NO [Compound 1b, 7-O-hexylnaringenin oxime]	practically not observed

The molecules below were run on Enterococcus faecalis (ATCC 29212) (assay: Adhesion assay, static conditions: E. faecalis to 3T3-L1 cell line). Details: not given.
Assay type: cell-based
Experimental: as §4, §5, §6

SMILES	effect on adhesion of E. faecalis to 3T3-L1 (in words)
CCCCCCCCCOc1cc(O)c2c(c1)O[C@H](c1ccc(O)cc1)CC2=O [Compound 7a, 7-O-nonylnaringenin]	often actually limited the attachment

Reference: publication PMC10294875, “Ether Derivatives of Naringenin and Their Oximes as Factors Modulating Bacterial Adhesion” (Antibiotics, 2023)
